What was measured:
[1] = molecular target: T1, CYP1A2 (Homo sapiens, UniProt P05177); test: Inhibitory activity of 20 uM SPP100 on 502 Pmoles of cDNA-derived CYP1A2 enzyme in microsome prepared from human lymphoblastoid cell line; assay type: ADME, microsomes; design: conc 20 uM, interact cpd conc 50 uM; details: probe phenacetin
T1 sequence (P05177 whole entry): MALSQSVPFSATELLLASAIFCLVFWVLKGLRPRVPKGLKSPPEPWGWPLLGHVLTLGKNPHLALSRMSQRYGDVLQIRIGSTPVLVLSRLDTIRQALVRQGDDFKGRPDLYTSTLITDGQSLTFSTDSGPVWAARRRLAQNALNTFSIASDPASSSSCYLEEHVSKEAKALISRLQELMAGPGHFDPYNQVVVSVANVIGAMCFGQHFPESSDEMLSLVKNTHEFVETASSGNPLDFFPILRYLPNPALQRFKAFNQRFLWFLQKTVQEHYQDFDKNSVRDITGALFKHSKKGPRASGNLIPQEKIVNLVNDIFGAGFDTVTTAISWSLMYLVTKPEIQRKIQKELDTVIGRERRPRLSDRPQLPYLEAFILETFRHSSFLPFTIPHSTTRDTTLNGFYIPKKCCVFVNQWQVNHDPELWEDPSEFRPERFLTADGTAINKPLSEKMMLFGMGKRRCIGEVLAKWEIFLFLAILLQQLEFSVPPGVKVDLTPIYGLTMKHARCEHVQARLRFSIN

[2] = molecular target: T1, CYP1A2; test: Inhibitory activity of 200 uM SPP100 on 484 Pmoles of cDNA-derived CYP1A2 enzyme in microsome prepared from human lymphoblastoid cell line; assay type: ADME, microsomes; design: conc 200 uM, interact cpd conc 50 uM; details: probe phenacetin
[3] = Excretion (0-72h) of aliskiren in faeces following oral administration of [14C] aliskiren hemifumarate at 3 mg.Kg-1 level in marmoset; assay type: ADME, organism-based, Callithrix jacchus, Feces; details: in vivo
[4] = molecular target: T1, CYP1A2; test: Inhibition of CYP1A2 in human liver microsomes from 10 healthy donors at 200 uM aliskiren (SPP100); assay type: ADME, Microsome; design: conc 200 uM; details: probe phenacetin (O-deethylation)
[5] = % SPP100 (0-72h) recovered in faeces following single intravenous dose of [14C] aliskiren hemifumarate at 1 mg.Kg-1 level in marmoset; assay type: ADME, organism-based, Callithrix jacchus, Feces; details: in vivo
[6] = Concentration of radioactivity in the kidney medulla following repeated oral administration of [14C] aliskiren hemifumarate at 100 mg.Kg-1 level studied at 24h after 3rd dose in rat; assay type: ADME, organism-based, Albino HAN:WIST, Renal medulla; details: in vivo
[7] = Excretion of radioactivity (48-72h) in urine following single oral dose of 100 mg.Kg-1 [14C] aliskiren hemifumarate in rat; assay type: ADME, organism-based, Albino HAN:WIST; details: in vivo
[8] = Excretion of radioactivity (72-96h) in urine following single oral dose of 100 mg.Kg-1 [14C] aliskiren hemifumarate in rat; assay type: ADME, organism-based, Albino HAN:WIST; details: in vivo
[9] = Mean excretion of radioactivity (24-48h) in urine and faeces following single oral dose of 100 mg.Kg-1 [14C] aliskiren hemifumarate in rat; assay type: ADME, organism-based, Albino HAN:WIST, Urine/Feces; details: in vivo
[10] = Concentration of radioactivity in the liver following repeated oral administration of [14C] aliskiren hemifumarate at 100 mg.Kg-1 level studied at 2h after 7th dose in rat; assay type: ADME, organism-based, Albino HAN:WIST; details: in vivo
[11] = molecular target: T2, Cytochrome P450 4F2 (Homo sapiens, UniProt P78329); test: Metabolic clearance (ul.min.nmol-1 CYP) of aliskiren hemifumarate for CYP4F2 was determined in human liver microsome incubated with [14C]SPP100 hemifumarate; assay type: ADME; details: microsomes
T2 sequence (P78329 whole entry): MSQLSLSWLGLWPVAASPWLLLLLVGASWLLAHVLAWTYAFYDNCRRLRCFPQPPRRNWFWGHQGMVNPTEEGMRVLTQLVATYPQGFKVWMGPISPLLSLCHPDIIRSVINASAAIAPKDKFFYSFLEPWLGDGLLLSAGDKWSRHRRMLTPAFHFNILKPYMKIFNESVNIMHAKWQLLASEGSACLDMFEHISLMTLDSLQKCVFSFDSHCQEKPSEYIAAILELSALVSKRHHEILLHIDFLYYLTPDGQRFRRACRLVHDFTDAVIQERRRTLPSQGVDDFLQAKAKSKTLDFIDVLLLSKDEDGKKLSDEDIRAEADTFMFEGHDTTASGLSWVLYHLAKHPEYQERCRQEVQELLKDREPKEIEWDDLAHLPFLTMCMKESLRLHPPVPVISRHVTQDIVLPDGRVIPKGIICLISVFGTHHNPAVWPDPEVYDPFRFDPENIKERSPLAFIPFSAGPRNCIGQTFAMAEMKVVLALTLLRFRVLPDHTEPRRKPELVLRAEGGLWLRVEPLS

[12] = Tmax of radioactivity following repeated oral administration of [14C] aliskiren hemifumarate at 100 mg.Kg-1 level studied after 2h of dosing on day 10 in rat; assay type: ADME, organism-based, Albino HAN:WIST; details: in vivo
[13] = AUC of [14C] aliskiren hemifumarate following single oral dose of [14C] aliskiren hemifumarate at 500 mg.Kg-1 level in mouse; assay type: ADME, organism-based, TgRasH2, Plasma; details: in vivo
[14] = Concentration of radioactivity in carcass following intravenous administration of [14C] aliskiren hemifumarate at 10 mg.Kg-1 level measured on day 7 in rat; assay type: ADME, organism-based, Lister-Hooded; details: in vivo
[15] = Apparent terminal half-life (0-168h) of total radioactivity following single intravenous administration of [14C] aliskiren hemifumarate at 1 mg.Kg-1 level in marmoset; assay type: ADME, organism-based, Callithrix jacchus, Plasma; details: in vivo
[16] = AUCss(tau)/dose of aliskiren hemifumarate following repeated oral administration of [14C] aliskiren hemifumarate at 100 mg.Kg-1 level studied in rat; assay type: ADME, organism-based, Albino HAN:WIST, Plasma; details: in vivo
[17] = AUC of aliskiren hemifumarate following 8 day once-daily dosing of SPP100B oral solution at 80 mg level studied on day 8 in men; assay type: ADME, organism-based; details: male, human, plasma
[18] = AUC (0-24h)/dose of aliskiren hemifumarate following 4 week oral dietary dosing of aliskiren hemifumarate at 500 mg.Kg-1 level in female mouse; assay type: ADME, organism-based, CB6F1-TGrasH2, Plasma; details: in vivo
[19] = Effect of 4 week oral dietary dosing of aliskiren hemifumarate at 1500 mg.Kg-1 level on spermatogenesis in male mouse; assay type: toxicity, organism-based, CB6F1-TGrasH2, Testis; details: in vivo, 672 h
[20] = Cmax of aliskiren hemifumarate following 8 day once-daily dosing of SPP100B oral solution at 40 mg level studied on day 8 in men; assay type: ADME, organism-based; details: male, human, plasma
[21] = Cmax of aliskiren hemifumarate following 4 week oral dietary dosing of aliskiren hemifumarate at 500 mg.Kg-1 level in male mouse; assay type: ADME, organism-based; details: CB6F1-TGrasH2, mouse, in vivo
[22] = AUC of aliskiren hemifumarate following single dosing of SPP100B oral solution at 160 mg level studied on day 1 in men; assay type: ADME, organism-based; details: male, human, plasma
[23] = AUCspec of aliskiren hemifumarate following 2 week oral dosing of aliskiren hemifumarate at 100 mg.Kg-1 level studied on day 1 in female Callithrix jacchus; assay type: ADME, organism-based, Plasma; details: marmoset, in vivo, 336 h
[24] = Effect of 2 week oral dosing of aliskiren hemifumarate at 10 mg.Kg-1 level on blood urea nitrogen level in female Callithrix jacchus; assay type: toxicity, organism-based, Plasma; details: marmoset, 336 h
[25] = AUC (0-24h) of aliskiren hemifumarate following 4 week oral dietary dosing of aliskiren hemifumarate at 1500 mg.Kg-1 level in male mouse; assay type: ADME, organism-based; details: CB6F1-TGrasH2, mouse, plasma
[26] = AUC (0-96 or 0-168h) of unlabeled aliskiren hemifumarate following single oral administration of aliskiren hemifumarate at 3 mg.Kg-1 level in marmoset; assay type: ADME, organism-based, Callithrix jacchus; details: plasma
[27] = Effect of 2 week oral dosing of aliskiren hemifumarate at 100 mg.Kg-1 level on blood urea nitrogen level in female Callithrix jacchus; assay type: toxicity, organism-based, Plasma; details: marmoset, 336 h

Structure (SMILES): COCCCOc1cc(C[C@@H](C[C@H](N)[C@@H](O)C[C@H](C(=O)NCC(C)(C)C(N)=O)C(C)C)C(C)C)ccc1OC
- inhibition at 20 µM [1]: 2.5%
- inhibition at 200 µM [2]: 6%
- Compound recovery [3]: 78%
- inhibition at 200 µM [4]: 15.2%
- Compound recovery [5]: 36%

Structure (SMILES): COCCCOc1cc(C[C@@H](C[C@H](N)[C@@H](O)C[C@H](C(=O)NCC([14CH3])([14CH3])C(N)=O)C(C)C)C(C)C)ccc1OC.O=C(O)/C=C/C(=O)O
- Radiolabel recovery [6]: OUTCOME = Detected
- Radiolabel recovery [7]: 0.04%
- Radiolabel recovery [8]: 0.01%
- Radiolabel recovery [9]: 40.2%
- Radiolabel recovery [10]: OUTCOME = Detected
- CL [11]: 7.9 µL·min/nmol
- Tmax(10) [12]: 218 h
- AUC [13]: 18.3 µM·h
- Radiolabel recovery [14]: OUTCOME = Observed, VALUE = residues of radioactivity remained in the carcass at 7 days after dosing
- t1/2 [15]: 39.5 h

Structure (SMILES): COCCCOc1cc(C[C@@H](C[C@H](N)[C@@H](O)C[C@H](C(=O)NCC(C)(C)C(N)=O)C(C)C)C(C)C)ccc1OC.COCCCOc1cc(C[C@@H](C[C@H](N)[C@@H](O)C[C@H](C(=O)NCC(C)(C)C(N)=O)C(C)C)C(C)C)ccc1OC.O=C(O)/C=C/C(=O)O [ALISKIREN FUMARATE]
- AUCss(tau) normalised [16]: 10 (nmol.h.L-1)/(mg/kg)
- AUC at 192 h [17]: 137 ng·h/mL
- AUC normalised [18]: 1.71 ((ng/mL).hours)/(mg/kg/day)
- Change in spermatogenesis [19]: OUTCOME = No abnormalities. No animals died during the study.
- Cmax [20]: 6.2 ng/mL
- Cmax [21]: 312 ng/mL
- AUC [22]: 215 ng·h/mL
- AUC normalised [23]: 0.84 ((ug.h.ml-1)/(mg/kg)
- BUN_CHANGE_BY [24]: 69%
- AUC(0-t) at 24 h [25]: 4140 ng·h/mL
- AUC at 168 h [26]: 4.55 µM·h
- BUN_CHANGE_BY [27]: 401%

— ChEMBL document CHEMBL3508693 (2016)
